Reference: ChEMBL document CHEMBL1138436, “Biological activity and chemistry of taxoids from the Japanese yew, Taxus cuspidata” (J Nat Prod, 2004)

Key:
Format in all cases: functional
[1] = Growth inhibition of human HBC4 cells
[2] = Growth inhibition of human BSY1 cells
[3] = Growth inhibition of human HBC5 cells
MCF7 = assay: Growth inhibition of human MCF7 cells
U-251 = assay: Growth inhibition of human U251 cells
SF-268 = assay: Growth inhibition of human SF268 cells
SF-295 = assay: Growth inhibition of human SF295 cells
SF-539 = assay: Growth inhibition of human SF539 cells
SNB-75 = assay: Growth inhibition of human SNB75 cells
SNB-78 = assay: Growth inhibition of human SNB78 cells
KM12 = assay: Growth inhibition of human KM12 cells
HCT-15 = assay: Growth inhibition of human HCT15 cells
HCT-116 = assay: Growth inhibition of human HCT116 cells
NCI-H23 = assay: Growth inhibition of human NCI-H23 cells
NCI-H522 = assay: Growth inhibition of human NCI-H522 cells
NCI-H460 = assay: Growth inhibition of human NCI-H460 cells
A549 = assay: Growth inhibition of human A549 cells
LOX IMVI = assay: Growth inhibition of human LOXIMVI cells
OVCAR-3 = assay: Growth inhibition of human OVCAR-3 cells
OVCAR-4 = assay: Growth inhibition of human OVCAR4 cells
OVCAR-5 = assay: Growth inhibition of human OVCAR5 cells
SK-OV-3 = assay: Growth inhibition of human SKOV3 cells
[4] = Growth inhibition of human RXF631L cells
ACHN = assay: Growth inhibition of human ACHN cells
St-4 = assay: Growth inhibition of human St-4 cells
[5] = Growth inhibition of human MKN1 cells
MKN-28 = assay: Growth inhibition of human MKN28 cells
PC-3 = assay: Growth inhibition of human PC3 cells
[6] = read-out: LC50 (the source's name)
[7] = read-out: pLC50 (the source's name) (converted)

C=C1[C@@H](OC(=O)/C=C/c2ccccc2)C[C@H](OC(C)=O)[C@]2(C)[C@@H]1C[C@]1(C(C)(C)O)C[C@H](OC(C)=O)C(C)=C1[C@@H](OC(=O)c1ccccc1)[C@@H]2OC(C)=O [TAXUSPINE A]
GI50 ([1]; read-out: GI50): 100 µM
CC50 [1, 6]: > 100 µM
TGI ([1]; read-out: TGI): > 100 µM
GI50 ([1]; read-out: pGI50 (converted)): 72.4 µM
TGI ([1]; read-out: pTGI (converted)): 100 µM
GI50 ([2]; BSY-1, read-out: GI50): 6.9 µM
CC50 ([2]; BSY-1, read-out: LC50 (the source's name)): > 100 µM
TGI ([2]; BSY-1, read-out: TGI): 82 µM
GI50 ([2]; BSY-1, read-out: pGI50 (converted)): 6.92 µM
CC50 ([2]; BSY-1, read-out: pLC50 (the source's name) (converted)): 100 µM
TGI ([2]; BSY-1, read-out: pTGI (converted)): 87.1 µM
GI50 ([3]; read-out: GI50): 100 µM
CC50 [3, 6]: > 100 µM
TGI ([3]; read-out: TGI): > 100 µM
GI50 ([3]; read-out: pGI50 (converted)): 25.1 µM
TGI ([3]; read-out: pTGI (converted)): 100 µM
GI50 (MCF7; read-out: GI50): 9.3 µM
CC50 (MCF7; [6]): > 100 µM
TGI (MCF7; read-out: TGI): > 100 µM
GI50 (MCF7; read-out: pGI50 (converted)): 9.33 µM
CC50 (MCF7; [7]): 100 µM
TGI (MCF7; read-out: pTGI (converted)): 100 µM
TGI (U-251): > 100 µM
GI50 (U-251; read-out: GI50): 71 µM
CC50 (U-251; [6]): > 100 µM
GI50 (U-251; read-out: pGI50 (converted)): 70.8 µM
TGI (SF-268): > 100 µM
GI50 (SF-268; read-out: GI50): 43 µM
CC50 (SF-268; [6]): > 100 µM
GI50 (SF-268; read-out: pGI50 (converted)): 42.7 µM
CC50 (SF-268; [7]): 100 µM
GI50 (SF-295; read-out: GI50): 10 µM
CC50 (SF-295; [6]): > 100 µM
TGI (SF-295; read-out: TGI): > 100 µM
GI50 (SF-295; read-out: pGI50 (converted)): 11 µM
TGI (SF-295; read-out: pTGI (converted)): 100 µM
GI50 (SF-539; read-out: GI50): 100 µM
CC50 (SF-539; [6]): > 100 µM
TGI (SF-539; read-out: TGI): > 100 µM
GI50 (SF-539; read-out: pGI50 (converted)): 100 µM
CC50 (SF-539; [7]): 100 µM
TGI (SF-539; read-out: pTGI (converted)): 100 µM
GI50 (SNB-75; read-out: GI50): 7.3 µM
CC50 (SNB-75; [6]): > 100 µM
TGI (SNB-75; read-out: TGI): 68 µM
GI50 (SNB-75; read-out: pGI50 (converted)): 7.24 µM
CC50 (SNB-75; [7]): 100 µM
TGI (SNB-75; read-out: pTGI (converted)): 67.6 µM
GI50 (SNB-78; read-out: GI50): 3.2 µM
CC50 (SNB-78; [6]): > 100 µM
TGI (SNB-78; read-out: TGI): > 100 µM
GI50 (SNB-78; read-out: pGI50 (converted)): 3.16 µM
CC50 (SNB-78; [7]): 100 µM
TGI (SNB-78; read-out: pTGI (converted)): 100 µM
GI50 (KM12; read-out: GI50): 6.4 µM
CC50 (KM12; [6]): > 100 µM
TGI (KM12; read-out: TGI): > 100 µM
GI50 (KM12; read-out: pGI50 (converted)): 6.46 µM
CC50 (KM12; [7]): 100 µM
TGI (KM12; read-out: pTGI (converted)): 100 µM
GI50 (HCT-15; read-out: GI50): 29 µM
CC50 (HCT-15; [6]): > 100 µM
TGI (HCT-15; read-out: TGI): > 100 µM
GI50 (HCT-15; read-out: pGI50 (converted)): 28.8 µM
CC50 (HCT-15; [7]): 100 µM
TGI (HCT-15; read-out: pTGI (converted)): 100 µM
TGI (HCT-116): > 100 µM
GI50 (HCT-116; read-out: GI50): 5.6 µM
CC50 (HCT-116; [6]): > 100 µM
GI50 (HCT-116; read-out: pGI50 (converted)): 5.62 µM
CC50 (HCT-116; [7]): 100 µM
GI50 (NCI-H23; read-out: GI50): 100 µM
CC50 (NCI-H23; [6]): > 100 µM
TGI (NCI-H23; read-out: TGI): > 100 µM
GI50 (NCI-H23; read-out: pGI50 (converted)): 100 µM
CC50 (NCI-H23; [7]): 100 µM
GI50 (NCI-H522; read-out: GI50): 3.1 µM
CC50 (NCI-H522; [6]): > 100 µM
TGI (NCI-H522; read-out: TGI): 81 µM
GI50 (NCI-H522; read-out: pGI50 (converted)): 3.09 µM
TGI (NCI-H522; read-out: pTGI (converted)): 81.3 µM
GI50 (NCI-H460; read-out: GI50): 44 µM
CC50 (NCI-H460; [6]): > 100 µM
TGI (NCI-H460; read-out: TGI): > 100 µM
GI50 (NCI-H460; read-out: pGI50 (converted)): 43.7 µM
TGI (NCI-H460; read-out: pTGI (converted)): 100 µM
GI50 (A549; read-out: GI50): 9.6 µM
CC50 (A549; [6]): > 100 µM
TGI (A549; read-out: TGI): > 100 µM
GI50 (A549; read-out: pGI50 (converted)): 9.55 µM
CC50 (A549; [7]): 100 µM
TGI (A549; read-out: pTGI (converted)): 100 µM
GI50 (LOX IMVI; read-out: GI50): 38 µM
CC50 (LOX IMVI; [6]): > 100 µM
TGI (LOX IMVI; read-out: TGI): > 100 µM
GI50 (LOX IMVI; read-out: pGI50 (converted)): 38 µM
TGI (LOX IMVI; read-out: pTGI (converted)): 100 µM
GI50 (OVCAR-3; read-out: GI50): 5 µM
CC50 (OVCAR-3; [6]): > 100 µM
TGI (OVCAR-3; read-out: TGI): > 100 µM
GI50 (OVCAR-3; read-out: pGI50 (converted)): 5.01 µM
CC50 (OVCAR-3; [7]): 100 µM
TGI (OVCAR-3; read-out: pTGI (converted)): 100 µM
GI50 (OVCAR-4; read-out: GI50): 22 µM
CC50 (OVCAR-4; [6]): > 100 µM
TGI (OVCAR-4; read-out: TGI): > 100 µM
GI50 (OVCAR-4; read-out: pGI50 (converted)): 22.4 µM
CC50 (OVCAR-4; [7]): 100 µM
TGI (OVCAR-4; read-out: pTGI (converted)): 100 µM
GI50 (OVCAR-5; read-out: GI50): 32 µM
CC50 (OVCAR-5; [6]): > 100 µM
TGI (OVCAR-5; read-out: TGI): > 100 µM
GI50 (OVCAR-5; read-out: pGI50 (converted)): 32.4 µM
CC50 (OVCAR-5; [7]): 100 µM
TGI (OVCAR-5; read-out: pTGI (converted)): 100 µM
GI50 (SK-OV-3; read-out: GI50): 100 µM
CC50 (SK-OV-3; [6]): > 100 µM
TGI (SK-OV-3; read-out: TGI): > 100 µM
GI50 (SK-OV-3; read-out: pGI50 (converted)): 100 µM
CC50 (SK-OV-3; [7]): 100 µM
TGI (SK-OV-3; read-out: pTGI (converted)): 100 µM
TGI ([4]; RXF 631): > 100 µM
GI50 ([4]; RXF 631, read-out: GI50): 100 µM
CC50 ([4]; RXF 631, read-out: LC50 (the source's name)): > 100 µM
GI50 ([4]; RXF 631, read-out: pGI50 (converted)): 100 µM
CC50 ([4]; RXF 631, read-out: pLC50 (the source's name) (converted)): 100 µM
GI50 (ACHN; read-out: GI50): 87 µM
CC50 (ACHN; [6]): > 100 µM
TGI (ACHN; read-out: TGI): > 100 µM
GI50 (ACHN; read-out: pGI50 (converted)): 87.1 µM
TGI (ACHN; read-out: pTGI (converted)): 100 µM
GI50 (St-4; read-out: GI50): 24 µM
CC50 (St-4; [6]): > 100 µM
TGI (St-4; read-out: TGI): > 100 µM
GI50 (St-4; read-out: pGI50 (converted)): 24 µM
CC50 (St-4; [7]): 100 µM
TGI (St-4; read-out: pTGI (converted)): 100 µM
GI50 ([5]; MKN-1, read-out: GI50): 93 µM
CC50 ([5]; MKN-1, read-out: LC50 (the source's name)): > 100 µM
TGI ([5]; MKN-1, read-out: TGI): > 100 µM
GI50 ([5]; MKN-1, read-out: pGI50 (converted)): 93.3 µM
CC50 ([5]; MKN-1, read-out: pLC50 (the source's name) (converted)): 100 µM
TGI ([5]; MKN-1, read-out: pTGI (converted)): 100 µM
GI50 (MKN-28; read-out: GI50): 12 µM
CC50 (MKN-28; [6]): > 100 µM
TGI (MKN-28; read-out: TGI): > 100 µM
GI50 (MKN-28; read-out: pGI50 (converted)): 11.7 µM
CC50 (MKN-28; [7]): 100 µM
TGI (MKN-28; read-out: pTGI (converted)): 100 µM
GI50 (PC-3; read-out: GI50): 5.2 µM
CC50 (PC-3; [6]): > 100 µM
TGI (PC-3; read-out: TGI): > 100 µM
GI50 (PC-3; read-out: pGI50 (converted)): 5.25 µM
TGI (PC-3; read-out: pTGI (converted)): 100 µM
